# Measured values as given in patent US9000037B2, “Precursors of glutamate derivatives” (Piramal Imaging SA, priority 2011, dated 2015).
# How the values were obtained:
# [1] = test system: tumor; conditions: cited from earlier work
# [2] = 19F-fluorination of precursors, reaction rates; assay type: physicochemical; conditions: for krel (relative reaction rate): 19F-fluorination, slowest reaction (If) defined as 1; for reaction rate of 19F-fluorination, in words: comparison among precursors
# Description: Precursor (0.01 mmol) was dissolved in acetonitrile (0.5 mL), and 1.0 M TBAF/acetonitrile solution (20 μL, 0.02 mmol) was added. The reaction mixture was stirred at 80° C. for 2 h. 40 μL of solution was taken at 5, 10, 20, 40, 60, 90, and 120 min for HPLC analysis (method A4).
# ^19F-Fluorination was performed as described in “General procedures”. The progress of the reaction was examined after 5, 10, 20, 40, 60, 90, and 120 min. Plotting the percentage of the conversation versus the time, the reaction rates were calculated.
# [3] = Stability of example compounds in solid form (HPLC); assay type: physicochemical; conditions: for Solid (%) Start: purity by HPLC before the study; for Solid (%) 1 week 0° C. / Solid (%) 1 week −20° C. / Solid (%) 2 week 0° C. / Solid (%) 2 week −20° C. / Solid (%) 3 week 0° C. / Solid (%) 3 week −20° C. / Solid (%) 4 week 0° C. / Solid (%) 4 week −20° C.: amber vial under Ar; for Solid (%) 2 week 0° C. / Solid (%) 2 week −20° C.: 2 weeks; for Solid (%) 3 week 0° C. / Solid (%) 3 week −20° C.: 3 weeks; for Solid (%) 4 week 0° C. / Solid (%) 4 week −20° C.: 4 weeks
# Description: Method A1 (analytics of di-tert-butyl (4S)-4-(3-hydroxypropyl)-N-trityl-L-glutamate • Column: ChiralPak IA, 4.6×250 mm • Mobile phase: 5% IPA/n-heptane • Flow rate: 1 mL/min • Wavelength: 214/254 nm Method A2 (for Id) • Column: X-Bridge • Mobile phase: Acetonitrile/water 20:80 to 100% water • Flow rate: 1 mL/min • Wavelength: 214 nm Method A3 (for Ia to Ic and Ie to II) • Column: X-Bridge • Mobile phase: Acetonitrile/water […] to 100% water • Flow rate: 1 mL/min • Wavelength: 214 nm Method A4 (^19F-fluorination) • Column: Phenomenex Lux 5U Amylose-2 • Mobile phase: 10% IPA/Hex • Flow rate: 1 mL/min • Wavelength: 214 nm Method A5 (^18F-radiolabeling) • Column: Phenomenex Luna 5μ C18(2); 250*4.6 mm • Mobile phase: A: Na2HPO4 10 mM pH 7.4, B: acetonitrile • Gradient: 0 min 12% B, 15 min 12% B, 16 min 100% B, 18 min 100% B, 20 min 12% B, 23 min 12% B • Flow rate: 1.2 mL/min • Wavelength: 340 nm • Derivatization: […] of the product solution are mixed with […] OPA reagent (Thermo Scientific, No.:26015). After 1 min reaction at room temperature the solution is applied to the HPLC
# The stability of the compounds of formula I were examined in solid form at two different temperatures: 0° C., and −20° C. The precursors were tested weekly for 4 weeks. Before the study, purities of the precursors were determined individually by HPLC analysis.
# 1. Solid state: 3-5 mg of the respective precursor Ia to Ij were put into 8 amber vials, which were flushed with Ar gas and capped. Each four vials containing precursor were stored at 0° C., and −20° C. Every week for 4 weeks, 1 mg of precursor was dissolved in acetonitrile (1.0 mL). 10 μL of solution was injected into HPLC (method A2 or A3, respectively).
Structure (SMILES),tumor uptake ([1]; first clinical studies),defluorination ([1]; in vivo),krel (relative reaction rate) [2],"reaction rate of 19F-fluorination, in words [2]",Solid (%) Start [3] [%],Solid (%) 1 week 0° C. [3] [%],Solid (%) 1 week −20° C. [3] [%],Solid (%) 2 week 0° C. [3] [%],Solid (%) 2 week −20° C. [3] [%],Solid (%) 3 week 0° C. [3] [%],Solid (%) 3 week −20° C. [3] [%],Solid (%) 4 week 0° C. [3] [%],Solid (%) 4 week −20° C. [3] [%],results in first clinical studies ([1]; compared with [18F]-4-fluoro-glutamic acid),detection of lung cancer ([1]; first clinical studies)
N[C@@H](CC([18F])C(=O)O)C(=O)O (some centres unmarked) [[^18F]-4-fluoro-glutamic acid],good tumor uptake,some defluorination was detected,–,–,–,–,–,–,–,–,–,–,–,–,–
"CC(C)(C)OC(=O)[C@@H](CCCOS(=O)(=O)c1ccc([N+](=O)[O-])cc1)C[C@H](NC(c1ccccc1)(c1ccccc1)c1ccccc1)C(=O)OC(C)(C)C [Ia, Di-tert-butyl (4S)-4-(3-{[(4-nitrophenyl)sulfonyl]oxy}propyl)-N-trityl-L-glutamate]",–,–,6.93,Fastest conversion,99.4,99.5,99.4,99.3,99.2,99.1,99.0,98.7,98.4,–,–
"CC(C)(C)OC(=O)[C@@H](CCCOS(=O)(=O)c1c(Cl)cc(Cl)cc1Cl)C[C@H](NC(c1ccccc1)(c1ccccc1)c1ccccc1)C(=O)OC(C)(C)C [Ii, Di-tert-butyl (4S)-4-(3-{[(2,4,6-trichlorophenyl)sulfonyl]oxy}propyl)-N-trityl-L-glutamate]",–,–,1.88,–,97.2,89.5,89.6,97.0,97.0,96.7,95.6,95.9,93.2,–,–
N[C@@H](C[C@H](CCC[18F])C(=O)O)C(=O)O [(S)-4-(3-[^18F]Fluoropropyl)-L-glutamic acid],–,–,–,–,–,–,–,–,–,–,–,–,–,Superior results,Very good results
"CC(C)(C)OC(=O)[C@@H](CCCOS(=O)(=O)c1cccc2ccccc12)C[C@H](NC(c1ccccc1)(c1ccccc1)c1ccccc1)C(=O)OC(C)(C)C [Ie, Di-tert-butyl (4S)-4-{3-[(1-naphthylsulfonyl)oxy]propyl}-N-trityl-L-glutamate]",–,–,2.45,–,99.1,99.0,98.9,99.0,99.0,99.0,98.6,98.6,97.9,–,–
"CC(C)(C)OC(=O)[C@@H](CCCOS(=O)(=O)c1ccc(-c2ccccc2)cc1)C[C@H](NC(c1ccccc1)(c1ccccc1)c1ccccc1)C(=O)OC(C)(C)C [Ic, Di-tert-butyl (4S)-4-{3-[(biphenyl-4-ylsulfonyl)oxy]propyl}-N-trityl-L-glutamate]",–,–,2.93,–,98.8,98.6,98.6,98.6,98.7,98.6,96.9,98.4,98.0,–,–
"CC(C)(C)OC(=O)[C@@H](CCCOS(=O)(=O)c1ccc2ccccc2c1)C[C@H](NC(c1ccccc1)(c1ccccc1)c1ccccc1)C(=O)OC(C)(C)C [Id, Di-tert-butyl (4S)-4-{3-[(2-naphthylsulfonyl)oxy]propyl}-N-trityl-L-glutamate]",–,–,2.38,–,99.8,99.8,99.8,–,–,99.8,99.8,99.8,99.8,–,–
"CC(C)(C)OC(=O)[C@@H](CCCOS(=O)(=O)c1cccc([N+](=O)[O-])c1)C[C@H](NC(c1ccccc1)(c1ccccc1)c1ccccc1)C(=O)OC(C)(C)C [Ib, Di-tert-butyl (4S)-4-(3-{[(3-nitrophenyl)sulfonyl]oxy}propyl)-N-trityl-L-glutamate]",–,–,9.86,Fastest conversion,96.7,96.5,96.6,94.6,94.8,95.0,93.7,91.3,94.3,–,–
"CC(C)(C)OC(=O)[C@@H](CCCOS(=O)(=O)c1cccc2cccnc12)C[C@H](NC(c1ccccc1)(c1ccccc1)c1ccccc1)C(=O)OC(C)(C)C [If, Di-tert-butyl (4S)-4-{3-[(quinolin-8-ylsulfonyl)oxy]propyl}-N-trityl-L-glutamate]",–,–,1.0,slowest reaction,90.5,89.5,89.6,89.0,88.5,89.0,88.3,89.0,87.0,–,–
"CC(C)(C)OC(=O)[C@@H](CCCOS(=O)(=O)c1ccc(-c2ccc(S(=O)(=O)OCCC[C@@H](C[C@H](NC(c3ccccc3)(c3ccccc3)c3ccccc3)C(=O)OC(C)(C)C)C(=O)OC(C)(C)C)cc2)cc1)C[C@H](NC(c1ccccc1)(c1ccccc1)c1ccccc1)C(=O)OC(C)(C)C [Ig, Tetra-tert-butyl (2S,4S,2′S,4′S)-2,2′-[biphenyl-4,4′-diylbis(sulfonyloxypropane-3,1-diyl)]bis[4-(tritylamino)pentanedioate]]",–,–,11.8,Fastest conversion,97.9,97.9,98.0,98.0,98.1,97.9,97.9,97.8,97.5,–,–
"CC(C)(C)OC(=O)[C@@H](CCCOS(=O)(=O)c1ccc([N+](=O)[O-])c(C(F)(F)F)c1)C[C@H](NC(c1ccccc1)(c1ccccc1)c1ccccc1)C(=O)OC(C)(C)C [Ih, Di-tert-butyl (4S)-4-[3-({[4-nitro-3-(trifluoromethyl)phenyl]sulfonyl}oxy)propyl]-N-trityl-L-glutamate]",–,–,–,–,97.6,94.4,94.6,95.0,94.8,93.1,93.1,93.4,92.8,–,–
